Laboratory results taken from the NIST ThermoML archive (doi:10.1021/je300280s).
“And” between values parts separate entries of the source, which are not always exact repeats. Equal entries are not always repeated. ± gives the expanded uncertainty stated by the source.

Columns and labels:
[1] = excess molar enthalpy (molar enthalpy of mixing); xn = mol fraction of the nth substance listed; conditions: 101.3 kPa, Liquid, Flow calorimetry
[2] = xn = mol fraction of the nth substance listed; conditions: 101.3 kPa, Liquid, Vibrating tube method

CCCC(=O)OC [methyl butanoate] + O
Conditions	excess molar enthalpy, [1]	mass density, [2]
288.15 K, x1 = 0.000628	-0.00163 kcal/mol and -0.00164 kcal/mol	999.058 ± 0.033 kg/m3
288.15 K, x1 = 0.000941	-0.00247 ± 0.000203 kcal/mol	999.037 ± 0.033 kg/m3
288.15 K, x1 = 0.000943	-0.00244 ± 0.000203 kcal/mol	999.038 ± 0.033 kg/m3
288.15 K, x1 = 0.001255	-0.00319 ± 0.00021 kcal/mol	999.019 ± 0.033 kg/m3
288.15 K, x1 = 0.001257	-0.00321 ± 0.00021 kcal/mol	999.019 ± 0.033 kg/m3
288.15 K, x1 = 0.001569	-0.00403 ± 0.000217 kcal/mol	998.999 ± 0.033 kg/m3
288.15 K, x1 = 0.00157	-0.00397 ± 0.000215 kcal/mol	999.001 ± 0.033 kg/m3
288.15 K, x1 = 0.001882	-0.00473 ± 0.000225 kcal/mol	998.985 ± 0.033 kg/m3
288.15 K, x1 = 0.001884	-0.00482 ± 0.000225 kcal/mol	998.981 ± 0.033 kg/m3
298.15 K, x1 = 0.000628	-0.00122 kcal/mol and -0.00123 kcal/mol	996.968 ± 0.034 kg/m3 and 996.965 ± 0.034 kg/m3
298.15 K, x1 = 0.000942	-0.00184 kcal/mol and -0.00183 kcal/mol	996.917 ± 0.034 kg/m3 and 996.921 ± 0.034 kg/m3
298.15 K, x1 = 0.001256	-0.0024 kcal/mol and -0.00241 kcal/mol	996.885 ± 0.034 kg/m3 and 996.884 ± 0.034 kg/m3
298.15 K, x1 = 0.001569	-0.00296 ± 0.000208 kcal/mol	996.85 ± 0.034 kg/m3
298.15 K, x1 = 0.00157	-0.003 ± 0.000208 kcal/mol	996.838 ± 0.034 kg/m3
298.15 K, x1 = 0.001882	-0.0036 ± 0.000213 kcal/mol	996.8 ± 0.034 kg/m3
298.15 K, x1 = 0.001883	-0.00351 ± 0.000213 kcal/mol	996.81 ± 0.034 kg/m3
298.15 K, x1 = 0.002195	-0.00402 ± 0.000215 kcal/mol	996.774 ± 0.035 kg/m3
298.15 K, x1 = 0.002197	-0.00404 ± 0.000217 kcal/mol	996.773 ± 0.035 kg/m3
308.15 K, x1 = 0.000626	-0.000837 ± 0.000191 kcal/mol	993.913 ± 0.036 kg/m3
308.15 K, x1 = 0.000627	-0.000839 ± 0.000191 kcal/mol	993.914 ± 0.036 kg/m3
308.15 K, x1 = 0.000939	-0.00124 ± 0.000194 kcal/mol	993.855 ± 0.14 kg/m3
308.15 K, x1 = 0.000941	-0.00124 ± 0.000194 kcal/mol	993.855 ± 0.14 kg/m3
308.15 K, x1 = 0.001253	-0.00165 ± 0.000198 kcal/mol	993.793 ± 0.037 kg/m3
308.15 K, x1 = 0.001254	-0.00161 ± 0.000198 kcal/mol	993.798 ± 0.037 kg/m3
308.15 K, x1 = 0.001565	-0.00199 ± 0.000201 kcal/mol	993.741 ± 0.21 kg/m3
308.15 K, x1 = 0.001567	-0.00199 ± 0.000201 kcal/mol	993.742 ± 0.21 kg/m3
308.15 K, x1 = 0.001878	-0.00241 ± 0.000203 kcal/mol	993.673 ± 0.26 kg/m3
308.15 K, x1 = 0.00188	-0.00237 ± 0.000203 kcal/mol	993.682 ± 0.26 kg/m3
308.15 K, x1 = 0.002191	-0.00271 ± 0.000206 kcal/mol	993.626 ± 0.16 kg/m3
308.15 K, x1 = 0.002194	-0.00272 ± 0.000206 kcal/mol	993.63 ± 0.21 kg/m3
318.15 K, x1 = 0.000941	-0.00066 ± 0.000191 kcal/mol	989.988 ± 0.039 kg/m3
318.15 K, x1 = 0.000942	-0.000669 ± 0.000191 kcal/mol	989.983 ± 0.039 kg/m3
318.15 K, x1 = 0.001254	-0.000865 ± 0.000191 kcal/mol	989.911 ± 0.039 kg/m3
318.15 K, x1 = 0.001255	-0.000872 ± 0.000191 kcal/mol	989.908 ± 0.039 kg/m3
318.15 K, x1 = 0.001567	-0.00106 ± 0.000194 kcal/mol	989.837 ± 0.04 kg/m3
318.15 K, x1 = 0.001569	-0.00106 ± 0.000194 kcal/mol	989.832 ± 0.04 kg/m3
318.15 K, x1 = 0.001879	-0.00126 ± 0.000196 kcal/mol	989.762 ± 0.04 kg/m3
318.15 K, x1 = 0.001882	-0.00124 ± 0.000194 kcal/mol	989.758 ± 0.04 kg/m3
318.15 K, x1 = 0.002192	-0.00141 ± 0.000196 kcal/mol	989.694 ± 0.041 kg/m3
318.15 K, x1 = 0.002195	-0.00143 ± 0.000196 kcal/mol	989.679 ± 0.041 kg/m3

CCCOC(C)=O [propyl ethanoate] + O
Conditions	excess molar enthalpy, [1]	mass density, [2]
288.15 K, x1 = 0.000935	-0.00273 ± 0.000206 kcal/mol	999.019 ± 0.033 kg/m3
288.15 K, x1 = 0.001246	-0.00364 ± 0.000213 kcal/mol	998.986 ± 0.033 kg/m3
288.15 K, x1 = 0.001248	-0.00363 ± 0.000213 kcal/mol	998.988 ± 0.033 kg/m3
288.15 K, x1 = 0.001558	-0.00452 ± 0.00022 kcal/mol	998.959 ± 0.033 kg/m3
288.15 K, x1 = 0.00156	-0.00446 ± 0.00022 kcal/mol	998.962 ± 0.033 kg/m3
288.15 K, x1 = 0.001869	-0.00535 ± 0.000227 kcal/mol	998.934 ± 0.033 kg/m3
288.15 K, x1 = 0.001871	-0.00534 ± 0.000227 kcal/mol	998.936 ± 0.033 kg/m3
288.15 K, x1 = 0.00218	-0.0062 ± 0.000234 kcal/mol	998.909 ± 0.033 kg/m3
288.15 K, x1 = 0.002182	-0.00616 ± 0.000232 kcal/mol	998.906 ± 0.033 kg/m3
288.15 K, x1 = 0.002491	-0.00703 ± 0.000239 kcal/mol	998.876 ± 0.033 kg/m3
288.15 K, x1 = 0.002494	-0.00708 ± 0.000239 kcal/mol	998.882 ± 0.033 kg/m3
298.15 K, x1 = 0.000935	-0.00206 ± 0.000201 kcal/mol	996.903 ± 0.1 kg/m3
298.15 K, x1 = 0.000936	-0.0021 ± 0.000201 kcal/mol	996.9 ± 0.034 kg/m3
298.15 K, x1 = 0.000937	-0.00212 ± 0.000201 kcal/mol	996.898 ± 0.1 kg/m3
298.15 K, x1 = 0.001247	-0.00274 ± 0.000206 kcal/mol	996.856 ± 0.13 kg/m3
298.15 K, x1 = 0.001248	-0.00277 ± 0.000206 kcal/mol	996.852 ± 0.034 kg/m3
298.15 K, x1 = 0.001249	-0.00278 ± 0.000206 kcal/mol	996.848 ± 0.13 kg/m3
298.15 K, x1 = 0.001558	-0.00347 ± 0.000213 kcal/mol	996.807 ± 0.17 kg/m3
298.15 K, x1 = 0.00156	-0.00342 kcal/mol and -0.00343 kcal/mol	996.803 ± 0.17 kg/m3 and 996.805 ± 0.17 kg/m3
298.15 K, x1 = 0.001869	-0.00404 ± 0.000217 kcal/mol	996.762 ± 0.16 kg/m3
298.15 K, x1 = 0.001871	-0.00407 ± 0.000217 kcal/mol	996.758 ± 0.2 kg/m3
298.15 K, x1 = 0.001872	-0.00405 ± 0.000217 kcal/mol	996.748 ± 0.035 kg/m3
298.15 K, x1 = 0.002181	-0.00472 ± 0.000222 kcal/mol	996.714 ± 0.22 kg/m3
298.15 K, x1 = 0.002183	-0.00466 kcal/mol and -0.00472 kcal/mol	996.703 ± 0.22 kg/m3 and 996.709 ± 0.23 kg/m3
298.15 K, x1 = 0.002492	-0.00539 ± 0.000227 kcal/mol	996.669 ± 0.27 kg/m3
298.15 K, x1 = 0.002494	–	996.669 ± 0.034 kg/m3
298.15 K, x1 = 0.002495	–	996.655 ± 0.12 kg/m3
308.15 K, x1 = 0.000936	-0.00148 kcal/mol and -0.00147 kcal/mol	993.831 ± 0.037 kg/m3 and 993.832 ± 0.037 kg/m3
308.15 K, x1 = 0.001247	-0.00196 kcal/mol and -0.00197 kcal/mol	993.761 ± 0.037 kg/m3
308.15 K, x1 = 0.001559	-0.00245 kcal/mol and -0.00244 kcal/mol	993.691 ± 0.037 kg/m3 and 993.692 ± 0.037 kg/m3
308.15 K, x1 = 0.00187	-0.00286 kcal/mol and -0.00292 kcal/mol	993.628 ± 0.037 kg/m3 and 993.621 ± 0.037 kg/m3
308.15 K, x1 = 0.002181	-0.00332 kcal/mol and -0.00334 kcal/mol	993.559 ± 0.037 kg/m3 and 993.557 ± 0.037 kg/m3
308.15 K, x1 = 0.002492	-0.0037 kcal/mol and -0.00371 kcal/mol	993.5 ± 0.037 kg/m3 and 993.503 ± 0.037 kg/m3
318.15 K, x1 = 0.000936	-0.000911 ± 0.000191 kcal/mol	989.957 ± 0.039 kg/m3
318.15 K, x1 = 0.000937	-0.000932 ± 0.000191 kcal/mol	989.951 ± 0.039 kg/m3
318.15 K, x1 = 0.001247	-0.00119 ± 0.000194 kcal/mol	989.872 ± 0.039 kg/m3
318.15 K, x1 = 0.001248	-0.00122 ± 0.000194 kcal/mol	989.86 ± 0.039 kg/m3
318.15 K, x1 = 0.001559	-0.00148 ± 0.000196 kcal/mol	989.782 ± 0.04 kg/m3
318.15 K, x1 = 0.001561	-0.00148 ± 0.000196 kcal/mol	989.779 ± 0.04 kg/m3
318.15 K, x1 = 0.00187	-0.00175 ± 0.000198 kcal/mol	989.693 ± 0.04 kg/m3
318.15 K, x1 = 0.001873	-0.00172 ± 0.000198 kcal/mol	989.698 ± 0.04 kg/m3
318.15 K, x1 = 0.002182	-0.00201 ± 0.000201 kcal/mol	989.605 ± 0.04 kg/m3
318.15 K, x1 = 0.002184	-0.00198 ± 0.000201 kcal/mol	989.612 ± 0.04 kg/m3
318.15 K, x1 = 0.002493	-0.00221 ± 0.000203 kcal/mol	989.536 ± 0.04 kg/m3
318.15 K, x1 = 0.002496	-0.00221 ± 0.000203 kcal/mol	989.532 ± 0.04 kg/m3
